In ChEMBL document CHEMBL2151026, “Comparative study on antioxidant capacity of flavonoids and their inhibitory effects on oleic acid-induced hepatic steatosis in vitro” (Eur J Med Chem, 2011):
Calls of active or inactive are those of the source. The rule behind the calls is not given here.

Legend:
HepG2 [1] = assay: Inhibition of oleic acid-induced triglyceride over-accumulation in human HepG2 cells incubated for 24 hrs relative to untreated control; assay type: functional; settings: for IC30: Homo sapiens, HepG2, 24 h
[2] = Reducing activity by cyclic voltammetry
[3] = Reducing activity assessed as chlorogenic acid equivalent per mmol standard at 37 degC for 30 mins by Folin-Ciocalteu reagent assay
HepG2 [4] = assay: Cytotoxicity against human HepG2 cells incubated for 24 hrs by MTT assay; assay type: cell-based; settings: hepg2, 24 h
HepG2 [5] = assay: Antioxidant activity in human HepG2 cells assessed as reduction of oleic acid-induced ROS generation incubated for 24 hrs by DHCF-DA based fluorimetric assay relative to untreated control; assay type: functional; settings: for IC30: Homo sapiens, HepG2, 24 h
HepG2 [6] = assay: Proxidant activity in human HepG2 cells assessed as increase in oleic acid-induced ROS generation at >25 uM incubated for 24 hrs by […] based fluorimetric assay relative to untreated control; assay type: cell-based; settings: hepg2, 24 h
HepG2 [7] = assay: Proxidant activity in human HepG2 cells assessed as increase in oleic acid-induced ROS generation at >10 uM incubated for 24 hrs by […] based fluorimetric assay relative to untreated control; assay type: cell-based; settings: hepg2, 24 h

## O=c1c(-c2ccc(O)cc2)coc2cc(O)ccc12 [DAIDZEIN]
HepG2 [1]
  Imax: 34.5%
  IC30: 140 µM
[2]
  Activity: 0.596 V
[3]
  Activity: 0.4 mM
HepG2 [4]
  Activity: > 200 µM
HepG2 [5]
  Imax: 37.5%
  inhibition: Dose-dependent effect
  IC30: 135 µM

## O=c1c(O)c(-c2ccc(O)c(O)c2)oc2cc(O)cc(O)c12 [QUERCETIN]
HepG2 [1]
  Imax: 46.1%
  IC30: 14.9 µM
[2]
  Activity: 0.218 V
[3]
  Activity: 1.24 mM
HepG2 [4]
  Activity: > 75 µM
HepG2 [5]
  Imax: 43.6%
  inhibition: Dose-dependent effect
  IC30: 30.8 µM

## COc1cc(-c2oc3cc(O)cc(O)c3c(=O)c2O)ccc1O [ISORHAMNETIN]
HepG2 [1]
  Imax: 41.8%
  IC30: 90.5 µM
[2]
  Activity: 0.115 V
[3]
  Activity: 1.04 mM
HepG2 [4]
  Activity: > 200 µM
HepG2 [5]
  Imax: 43.8%
  inhibition: Dose-dependent effect
  IC30: 69.3 µM

## C[C@@H]1O[C@@H](OC[C@H]2O[C@@H](Oc3c(-c4ccc(O)c(O)c4)oc4cc(O)cc(O)c4c3=O)[C@H](O)[C@@H](O)[C@@H]2O)[C@H](O)[C@H](O)[C@H]1O [RUTIN]
HepG2 [1]
  Imax: 28.2%
  IC30: > 200 µM
[2]
  Activity: 0.306 V
[3]
  Activity: 1.35 mM
HepG2 [4]
  Activity: > 250 µM
HepG2 [5]
  Imax: 25.2%
  inhibition: Dose-dependent effect
  IC30: > 250 µM

## O=c1c(O)c(-c2ccccc2)oc2cc(O)cc(O)c12 [GALANGIN]
HepG2 [1]
  Imax: inactive
[2]
  Activity: 0.354 V
[3]
  Activity: 0.75 mM
HepG2 [4]
  Activity: > 50 µM
HepG2 [5]
  Imax: 12.4%
  IC30: > 50 µM

## O=c1c(-c2ccc(O)cc2)coc2cc(O)cc(O)c12 [GENISTEIN]
HepG2 [1]
  Imax: inactive
[2]
  Activity: 0.614 V
[3]
  Activity: 0.33 mM
HepG2 [4]
  Activity: > 50 µM
HepG2 [5]
  Imax: 17.3%
  IC30: > 50 µM

## Oc1cc(O)c2c(c1)O[C@H](c1ccc(O)c(O)c1)[C@H](O)C2 [(-)-EPICATECHIN]
HepG2 [1]
  Imax: 46.6%
  IC30: 166 µM
[3]
  Activity: 1.05 mM
HepG2 [4]
  Activity: > 250 µM
HepG2 [5]
  Imax: 38.1%
  IC30: 103 µM

## O=C1C[C@@H](c2ccc(O)cc2)Oc2cc(O)cc(O)c21 [NARINGENIN]
HepG2 [1]
  Imax: inactive
[2]
  Activity: 0.71 V
[3]
  Activity: 0.55 mM
HepG2 [4]
  Activity: > 200 µM
HepG2 [5]
  Imax: inactive

## Oc1cc(O)c2c(c1)O[C@H](c1ccc(O)c(O)c1)[C@@H](O)C2 [CIANIDANOL]
HepG2 [1]
  Imax: 28.7%
  IC30: > 250 µM
[2]
  Activity: 0.285 V
[3]
  Activity: 0.77 mM
HepG2 [4]
  Activity: > 250 µM
HepG2 [5]
  Imax: 29.8%
  IC30: > 250 µM

## COc1ccc([C@@H]2CC(=O)c3c(O)cc(O)cc3O2)cc1O [HESPERETIN]
HepG2 [1]
  Imax: inactive
[2]
  Activity: 0.556 V
[3]
  Activity: 0.53 mM
HepG2 [4]
  Activity: > 100 µM
HepG2 [5]
  Imax: 23%
  IC30: > 150 µM

## O=c1cc(-c2ccccc2)oc2cc(O)cc(O)c12 [CHRYSIN]
HepG2 [1]
  Imax: inactive
[2]
  Activity: 0.81 V
[3]
  Activity: 0.16 mM
HepG2 [4]
  Activity: > 20 µM
HepG2 [5]
  Imax: inactive

## O=C1c2c(O)cc(O)cc2O[C@H](c2ccc(O)c(O)c2)[C@H]1O [(+)-TAXIFOLIN]
HepG2 [1]
  Imax: 43.4%
  IC30: 63.6 µM
[2]
  Activity: 0.248 V
[3]
  Activity: 0.99 mM
HepG2 [4]
  Activity: > 200 µM
HepG2 [5]
  Imax: 40.1%
  IC30: 40 µM

## O=c1c(O)c(-c2ccc(O)cc2)oc2cc(O)cc(O)c12 [KAEMPFEROL]
HepG2 [1]
  Imax: 58.6%
  IC30: 121 µM
[2]
  Activity: 0.189 V
[3]
  Activity: 1.08 mM
HepG2 [4]
  Activity: > 200 µM
HepG2 [5]
  Imax: 42.2%
  inhibition: Dose-dependent effect
  IC30: 68.7 µM

## O=c1c(O)c(-c2cc(O)c(O)c(O)c2)oc2cc(O)cc(O)c12 [MYRICETIN]
HepG2 [1]
  Imax: 24.8%
  IC30: > 150 µM
[2]
  Activity: 0.115 V
[3]
  Activity: 1.02 mM
HepG2 [4]
  Activity: > 200 µM
HepG2 [5]
  Imax: 34.5%
  inhibition: Dose-dependent effect
  IC30: 123 µM

## O=c1cc(-c2ccc(O)cc2)oc2cc(O)cc(O)c12 [APIGENIN]
HepG2 [1]
  Imax: inactive
[2]
  Activity: 0.623 V
HepG2 [6]
  Activity: Toxic
[3]
  Activity: 0.39 mM
HepG2 [4]
  Activity: > 150 µM
HepG2 [7]
  Activity: Toxic
HepG2 [5]
  Imax: inactive

## O=c1cc(-c2ccc(O)c(O)c2)oc2cc(O)cc(O)c12 [LUTEOLIN]
HepG2 [1]
  Imax: 24.2%
  IC30: > 20 µM
[2]
  Activity: 0.269 V
[3]
  Activity: 0.91 mM
HepG2 [4]
  Activity: > 20 µM
HepG2 [5]
  Imax: 24%
  IC30: > 20 µM

## O=C(O[C@@H]1Cc2c(O)cc(O)cc2O[C@@H]1c1cc(O)c(O)c(O)c1)c1cc(O)c(O)c(O)c1 [EPIGALOCATECHIN GALLATE]
HepG2 [1]
  Imax: 54.2%
  IC30: 6.3 µM
[2]
  Activity: 0.125 V
[3]
  Activity: 2.2 mM
HepG2 [4]
  Activity: > 200 µM
HepG2 [5]
  Imax: 40.2%
  inhibition: Dose-dependent effect
  IC30: 26.2 µM
